Test system: P12-Ichikawa
Assay: cell viability relative to DMSO control; higher = less cytotoxic
Settings: 48 h
Outline: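 NOMO1 or SEM (500 cells/well) or P12-Ichikawa (1000 cells/well) leukemia cells were adapted for at least four passages in each medium. They were seeded in 1536-well plates (5 μl) and pin-dosed with library compounds in DMSO over an 11-point threefold series, 47 μM to 0.79 nM. CellTiter-Glo One luminescence was read after 48 h at 37°C. Viability is the per-plate percentage relative to DMSO wells, with cell-free wells as background.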

[1] = HPLM + 10% dialyzed FBS, 0.000781 µM
[2] = HPLM + 10% dialyzed FBS, 0.00234 µM
[3] = HPLM + 10% dialyzed FBS, 0.00702 µM
[4] = HPLM + 10% dialyzed FBS, 0.0211 µM
[5] = HPLM + 10% dialyzed FBS, 0.0632 µM
[6] = HPLM + 10% dialyzed FBS, 0.19 µM
[7] = HPLM + 10% dialyzed FBS, 0.569 µM
[8] = HPLM + 10% dialyzed FBS, 1.71 µM
[9] = HPLM + 10% dialyzed FBS, 5.12 µM
[10] = HPLM + 10% dialyzed FBS, 15.4 µM
[11] = HPLM + 10% dialyzed FBS, 46.1 µM
[12] = RPMI 5 mM glucose + 10% FBS, 0.000781 µM
[13] = RPMI 5 mM glucose + 10% FBS, 0.00234 µM
[14] = RPMI 5 mM glucose + 10% FBS, 0.00702 µM
[15] = RPMI 5 mM glucose + 10% FBS, 0.0211 µM
[16] = RPMI 5 mM glucose + 10% FBS, 0.0632 µM
[17] = RPMI 5 mM glucose + 10% FBS, 0.19 µM
[18] = RPMI 5 mM glucose + 10% FBS, 0.569 µM
[19] = RPMI 5 mM glucose + 10% FBS, 1.71 µM
[20] = RPMI 5 mM glucose + 10% FBS, 5.12 µM
[21] = RPMI 5 mM glucose + 10% FBS, 15.4 µM
[22] = RPMI 5 mM glucose + 10% FBS, 46.1 µM
[23] = RPMI 5 mM glucose + 10% dialyzed FBS, 0.000781 µM
[24] = RPMI 5 mM glucose + 10% dialyzed FBS, 0.00234 µM
[25] = RPMI 5 mM glucose + 10% dialyzed FBS, 0.00702 µM
[26] = RPMI 5 mM glucose + 10% dialyzed FBS, 0.0211 µM
[27] = RPMI 5 mM glucose + 10% dialyzed FBS, 0.0632 µM
[28] = RPMI 5 mM glucose + 10% dialyzed FBS, 0.19 µM
[29] = RPMI 5 mM glucose + 10% dialyzed FBS, 0.569 µM
[30] = RPMI 5 mM glucose + 10% dialyzed FBS, 1.71 µM
[31] = RPMI 5 mM glucose + 10% dialyzed FBS, 5.12 µM
[32] = RPMI 5 mM glucose + 10% dialyzed FBS, 15.4 µM
[33] = RPMI 5 mM glucose + 10% dialyzed FBS, 46.1 µM

SMILES | cell viability [1] [%] | cell viability [2] [%] | cell viability [3] [%] | cell viability [4] [%] | cell viability [5] [%] | cell viability [6] [%] | cell viability [7] [%] | cell viability [8] [%] | cell viability [9] [%] | cell viability [10] [%] | cell viability [11] [%] | cell viability [12] [%] | cell viability [13] [%] | cell viability [14] [%] | cell viability [15] [%] | cell viability [16] [%] | cell viability [17] [%] | cell viability [18] [%] | cell viability [19] [%] | cell viability [20] [%] | cell viability [21] [%] | cell viability [22] [%] | cell viability [23] [%] | cell viability [24] [%] | cell viability [25] [%] | cell viability [26] [%] | cell viability [27] [%] | cell viability [28] [%] | cell viability [29] [%] | cell viability [30] [%] | cell viability [31] [%] | cell viability [32] [%] | cell viability [33] [%]
COc1ccc(C(=O)CC2(O)C(=O)Nc3c(Cl)ccc(Cl)c32)cc1 (stereo not drawn) | 102 | 114 | 114 | 114 | 117 | 124 | 120 | 106 | 55 | 19.6 | 14.5 | 107 | 104 | 117 | 109 | 116 | 125 | 118 | 106 | 55.8 | 14.1 | 12.9 | 98.9 | 116 | 126 | 115 | 120 | 128 | 122 | 105 | 81.9 | 25.4 | 27.5
Oc1nc(-c2ccc(C(F)(F)F)cc2)nc2c1CSCC2 | 102 | 109 | 96.1 | 102 | 109 | 108 | 106 | 98.1 | 100 | 91.5 | 94 | 101 | 102 | 100 | 84.2 | 107 | 99.5 | 108 | 99 | 87.7 | 96.8 | 85.4 | 95.1 | 90.9 | 95.5 | 86.3 | 90.7 | 94.7 | 94.4 | 99 | 87.6 | 87.8 | 79.3
COC(=O)c1ccc2c(c1)NC(=O)/C2=C(\Nc1ccc(N(C)C(=O)CN2CCN(C)CC2)cc1)c1ccccc1 | 105 | 109 | 102 | 101 | 92.6 | 101 | 102 | 102 | 98.6 | 95.9 | 96.9 | 106 | 102 | 96.1 | 86 | 101 | 104 | 101 | 94 | 102 | 97.3 | 89.3 | 102 | 104 | 104 | 90.2 | 101 | 99 | 95.6 | 93.4 | 99.4 | 86.2 | 93.5
COC1=C(OCCCN2CCOCC2)C=CC\3=C1/N=C(/NC(=O)C4=CN=C(N)N=C4)N5CC/N=C35 | 110 | 97.6 | 99.5 | 100 | 96 | 85.8 | 78.2 | 73.7 | 70.1 | 60.4 | 60.8 | 87.2 | 95.4 | 90.2 | 91.2 | 86.9 | 74.7 | 62.5 | 56.8 | 56.3 | 47.1 | 42 | 87.8 | 95.3 | 98.3 | 99.1 | 87.3 | 82.5 | 67.4 | 62.6 | 58.7 | 49.1 | 45.8
Cc1ccccc1C(=O)Nc1ccc(C(=O)N2CCCC(O)c3cc(Cl)ccc32)c(C)c1 (stereo not drawn) | 116 | 117 | 120 | 122 | 127 | 135 | 131 | 136 | 129 | 127 | 124 |  |  |  |  |  |  |  |  |  |  |  |  |  |  |  |  |  |  |  |  |  | 
CCOC(=O)C(C)OC1=CC=CC2=C1\C=C/N(CC(=O)NC3=CC=C4OCCOC4=C3)C2=O (stereo not drawn) | 89.3 | 97.6 | 97.9 | 53.9 | 101 | 106 | 95.5 | 97.5 | 90.5 | 101 | 108 | 89.6 | 97.6 | 97.9 | 91.7 | 98.6 | 103 | 103 | 91.2 | 87.2 | 111 | 108 | 88.6 | 88.2 | 91.5 | 88.5 | 85.7 | 98.2 | 92.2 | 89.8 | 90.4 | 92.5 | 101
Nc1c2c(nc3ccccc13)CCCC2 | 119 | 119 | 112 | 111 | 118 | 120 | 107 | 68.4 | 109 | 110 | 99 | 118 | 124 | 128 | 117 | 120 | 115 | 124 | 64.9 | 109 | 113 | 89.2 | 106 | 117 | 119 | 118 | 86.6 | 109 | 117 | 84.3 | 102 | 102 | 79.1
CCCCCCCCCCCCCC(=O)N[C@H](CO)[C@H](O)c1ccc([N+](=O)[O-])cc1 | 99.4 | 90.6 | 100 | 104 | 102 | 102 | 105 | 79.7 | 40.3 | 2.44 | 1.98 | 96.9 | 94.2 | 95.5 | 92.7 | 102 | 84.9 | 89.1 | 55.1 | 21.1 | 3.47 | 1.51 | 89.4 | 81.5 | 90.9 | 94 | 94.8 | 85.8 | 93.4 | 52 | 24.6 | 4.09 | 2.4
O=C(c1ccccc1)c1ccc2n1CCC2C(=O)O (stereo not drawn) | 113 | 111 | 114 | 111 | 112 | 106 | 109 | 91.7 | 75.8 | 64.6 | 71.5 | 127 | 117 | 124 | 119 | 120 | 113 | 117 | 96.3 | 84.5 | 57.3 | 62.8 | 104 | 108 | 106 | 107 | 99.1 | 108 | 98.6 | 93.6 | 72.6 | 52.8 | 61.8
CN1\C=N/C2=CC=C(NC3=CC(=CC=C3C)NC(=O)C4=CC(=CC=C4)C(C)(C)C#N)C=C2C1=O | 97.1 | 96.9 | 101 | 97.8 | 101 | 94.6 | 87 | 87.4 | 68.5 | 69.3 | 63.2 | 90.4 | 98.7 | 99 | 95 | 96.7 | 93 | 83.6 | 81.3 | 59.6 | 58.4 | 44.4 | 97.5 | 104 | 94 | 102 | 99.5 | 98.7 | 93.3 | 84.8 | 73.4 | 64.1 | 48.1
